Measurements published in patent US7396842B2, “Five-membered cyclic compounds” (Dianippon Sumitomo Pharma Co., Ltd., priority 2002, dated 2008).

target: T1, SMBS on rat lung membranes (Rattus norvegicus, UniProt A0A8I6A822); experiment: Receptor binding of the compound in rat lung membranes ([125I]-iodo-cyanopindolol ligand binding assay; Experiments 1 and 4); conditions: Table 37; compound concentration 30 μM; [125I]-iodo-cyanopindolol, rat lung membranes; Experiment 1; read-out: Binding Activity (30 μM)
T1 construct: from tissue; host or cells: rat lung membranes (SD male rats)
Protocol: Evaluation Test on Receptor Binding of the Compound in Rat Lung Membranes:
This experiment was carried out according to the method disclosed in Sugasawa et al., (Sugasawa, T. et al., J. Biol. Chem., 272, 21244-21252(1997)).
Preparation of Rat Lung Membranes
The air tube and blood vessels were removed from the lung excised from SD male rats (7-weeks old when used, purchased from Charles River Japan, Inc.), and the lung was chopped, and washed with ice-cold tris-saline buffer (10 mM Tris-HCl, 154 mM sodium chloride, pH 7.4). The lung was homogenized by PHYSCOTRON (maximum speed: 1 minute) in a buffer for homogenization (tris-saline buffer containing 1 mM ethylenediaminetetraacetate (EDTA), 1 mM 4-(2-aminoethyl)-benzenesulfonyl fluoride (AEBSF), 5 μg/ml aprotinin, 5 μg/ml leupeptin) under ice-cooling. The mixture was centrifuged at a low speed (1500×g, 20 minutes, 4° C.), and the supernatant was super-centrifuged (100000×g, 20 minutes, 4° C.). The pellets thus obtained were suspended in tris-saline buffer, and kept at −80° C. The concentration of protein was measured by a Protein Assay Kit manufactured by Bio-Rad using bovine serum albumin (BSA) as standard.
To each well of a protein-non-adsorbent round-bottom 96-well assay plate (purchased from IWAKI GLASS CO., LTD.) was added tris-saline buffer (200 μl) containing 1 nM [^125I]-iodo-cyanopindolol (purchased from Amarsham), 10 μM serotonin, 20 μM dl-propranol, 10 μM phentoramine, 1.1 mM ascorbic acid and 100 μg lung membranes, and the mixture was mixed well by pipetting, and the plate was incubated at 37° C. for 30 minutes. Test compounds were dissolved in 100% dimethylsulfoxide, and added to the plate in an amount of 2 μl (final concentration of DMSO: 1%). In order to obtain non-specific binding, L-threo-3-(3,4-dihydroxyphenyl)-N-[3-(4-fluorophenyl)propyl]-serinepyrrolidinamide was added at a final concentration of 100 μM instead of test compound. During this period, 0.3% polyethyleneimine (PEI)/tris-saline buffer (100 μl) was added to a multiscreen plate (96-well B-glassfiber, milipore Cat. No. MAFB NOB10) and the plate was incubated for more than 30 minutes. The plate was washed by vacuum filtration (by adding ice-cold tris-saline buffer (200 μl) and then vacuum filtration), and the reaction solution on the 96-well assay plate was washed by vacuum filtration onto the multiscreen plate for four times. The B-glassfiber paper filter at the bottom of the multiscreen plate was punched out, and the γ-ray amount of [^125I]-iodo-cyanopindolol being trapped onto the paper filter was measured as binding amount. The binding amount in the presence of DMSO (final concentration: 1%) was regarded as total binding, and the binding in the presence of L-threo-3-(3,4-dihydroxyphenyl) -N-[3-(4-fluorophenyl)-propyl]serinepyrrolidinamide was regarded as non-specific binding. The value which is calculated by subtracting non-specific binding from total binding is specific binding. The binding activity of the compound can be calculated by the following equation, and expressed in a ratio of inhibiting the specific binding of [^125I]-iodo-cyanopindorol to SMBS on rat lung membranes.
In the same manner to in Experiment 1, the receptor binding assay was carried out on the present compounds by using the rat lung membranes.

T1 sequence (A0A8I6A822 27-587): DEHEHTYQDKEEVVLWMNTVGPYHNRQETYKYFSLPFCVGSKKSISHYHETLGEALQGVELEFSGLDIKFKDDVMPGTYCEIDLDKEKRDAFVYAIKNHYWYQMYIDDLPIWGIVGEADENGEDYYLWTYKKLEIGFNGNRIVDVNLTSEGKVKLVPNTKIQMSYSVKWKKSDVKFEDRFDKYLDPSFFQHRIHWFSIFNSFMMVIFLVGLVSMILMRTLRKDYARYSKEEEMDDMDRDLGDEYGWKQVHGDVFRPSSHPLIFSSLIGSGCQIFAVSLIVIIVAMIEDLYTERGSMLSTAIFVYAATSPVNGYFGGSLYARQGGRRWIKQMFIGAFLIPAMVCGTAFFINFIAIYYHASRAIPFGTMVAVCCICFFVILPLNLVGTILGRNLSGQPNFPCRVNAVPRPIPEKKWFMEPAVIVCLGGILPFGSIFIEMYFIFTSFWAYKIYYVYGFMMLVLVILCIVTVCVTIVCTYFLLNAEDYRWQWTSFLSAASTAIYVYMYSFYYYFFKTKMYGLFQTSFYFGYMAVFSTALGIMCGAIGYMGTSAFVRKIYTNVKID

Row | inhibition at 30 µM [%] | SMILES
1 | 79 | COc1ccc(-c2csc(=Nc3ccccc3)n2CCCN)cc1 [Example 9, N-[3-(3-Aminopropyl)-4-(4-methoxyphenyl)-thiazol-2(3H) -ylidene]aniline]
2 | 98.1 | NCCCn1c(-c2ccc(-c3ccccc3)cc2)csc1=Nc1ccccc1 [Example 11, N-[3-(3-Aminopropyl)-4-(1,1′-biphenyl-4-yl)thiazol-2(3H)-ylidene]aniline]

same assay, conditions: Table 39; compound concentration 30 μM; [125I]-iodo-cyanopindolol, rat lung membranes; Experiment 1; read-out: Binding Activity (30 μM)

Row | inhibition at 30 µM [%] | SMILES
3 | 76.5 | CNCCCn1c(-c2ccc(OC)cc2)csc1=Nc1ccccc1 [Example 152, N-{4-(4-Methoxyphenyl)-3-[3-(methylamino)propyl]thiazol-2(3H)-ylidene}aniline]
4 | 89.7 | CC(=O)NCCCn1c(-c2ccc(Br)cc2)csc1=Nc1ccccc1 [Example 153, N-{3-[4-(4-Bromophenyl)-2-phenyliminothiazol-3(2H)-yl]propyl}-acetamide]
5 | 58.6 | O=C(CO)NCCCn1c(-c2ccc(Br)cc2)csc1=Nc1ccccc1 [Example 169, N-{3-[4-(4-Bromophenyl)-2-(phenylimino)-thiazol-3(2H)-yl]propyl}-2-hydroxyacetamide]
6 | 75.2 | COC(=O)NCCCn1c(-c2ccc(OC)cc2)csc1=Nc1ccccc1 [Example 176, Methyl 3-[4-(4-methoxyphenyl)-2-(phenylimino)thiazol-3(2H)-yl]propyl-carbamate]

Row | SMILES | inhibition at 30 µM [%]
7 | NCCCn1c(-c2ccc(C(=O)O)cc2)csc1=Nc1ccccc1 [Example 185, 4-[3-(3-Aminopropyl)-2-(phenylimino)-2,3-dihydrothiazol-4-yl]-benzoic acid] | 13.9

same assay, conditions: Table 42; concentration tested 30 μM; rat lung membranes; Experiment 4; read-out: Binding Activity (30 μM)

Row | SMILES | inhibition at 30 µM [%]
8 | CNC(=O)NCCn1c(-c2ccc(N3CCOCC3)cc2)csc1=Nc1ccc(F)cc1 [Example 214, N-Methyl-N′-{2-[2-[(4-fluorophenyl)imino]-4-[4-(morpholino)phenyl]-thiazol-3(2H)-yl]ethyl}urea] | 99
9 | CCOC(=O)CCNCCCn1c(-c2ccc(F)cc2)csc1=Nc1ccc(Cl)cc1OC [Example 216, Ethyl N-{3-[2-[(4-chloro-2-methoxyphenylimino)]-4-(4-fluoro-phenyl)-thiazol-3 (2H)-yl]propyl}-β-alaninate] | 112
10 | CN(C)C(=O)NCCCn1c(-c2ccc(N3CCOCC3)cc2)csc1=Nc1ccc(F)cc1 [Example 220, N′-{3-[2-[(4-Fluorophenyl)imino]-4-[4-(morpholino)phenyl]thiazol-3(2H)-yl]propyl}-N,N-dimethylurea] | 101
11 | CCCCNC(=O)NCCCn1c(-c2ccc(N3CCOCC3)cc2)csc1=Nc1ccc(F)cc1 [Example 221, N-butyl-N′-{3-[2-[(4-fluorophenyl)imino]-4-[4-(morpholino)phenyl]-thiazol-3(2H)-yl]propyl}urea] | 79
12 | O=C(NCCCn1c(-c2ccc(N3CCOCC3)cc2)csc1=Nc1ccc(F)cc1)c1ccccc1 [Example 222, N-{3-[2-[(4-Fluorophenyl)imino]-4-[4-(morpholino)phenyl]thiazol-3(2H)-yl]propyl}benzamide] | 86
13 | CCOC(=O)CC(=O)NCCCn1c(-c2ccc(N3CCOCC3)cc2)cs/c1=N\c1ccc(F)cc1 [Example 239] | 50
14 | O=C(COc1ccccc1)NCCCn1c(-c2ccc(N3CCOCC3)cc2)cs/c1=N\c1ccc(F)cc1 [Example 246] | 80
15 | CCOC(=O)NCCCn1c(-c2ccc(N3CCOCC3)cc2)cs/c1=N\c1ccc(F)cc1 [Example 250] | 98

Now from value to compound:

Row | inhibition at 30 µM [%] | SMILES
16 | 109 | CCOC(=O)CNCCCn1c(-c2ccc(F)cc2)csc1=Nc1ccc(Cl)cc1OC [Example 215, Ethyl N-{3-[2-[(4-chloro-2-methoxyphenyl)imino]-4-(4-fluorophenyl)-thiazol-3(2H)-yl]propyl}glycinate]
17 | 96 | CN(C)CC(=O)NCCCn1c(-c2ccc(N3CCOCC3)cc2)cs/c1=N\c1ccc(F)cc1 [Example 245]
18 | 61 | CCS(=O)(=O)NCCCn1c(-c2ccc(N3CCOCC3)cc2)cs/c1=N\c1ccc(F)cc1 [Example 251]
19 | 110 | N=C(NCCCn1c(-c2ccc(N3CCOCC3)cc2)cs/c1=N\c1ccc(F)cc1)N1CCCCC1 [Example 257]
